{"source": "patent US20250270170A1", "about": "“2,3-DIMETHOXY-5-METHYL-1,4-BENZOQUINONE ALKYL ALCOHOL DERIVATIVE AND USE THEREOF” (BEIJING ANJIANXI BIO-MEDICAL TECHNOLOGY CO., LTD., priority 2021, published 2025)", "key": {"[1]": {"system": "A549 cells", "assay": "Flow cytometry for apoptosis detection (Annexin V-FITC/PI), A549", "assay_type": "cell-based, human", "conditions": "72 h", "method": "(1) Cells were inoculated in a 6-well plate. When the cell growth density was appropriate, four concentrations (0 μM, 10 μM, 30 μM, and 90 μM) of the compound of formula (I) were added, and placed in an incubator at 37° C. with 5% CO2 to continue culturing for 72 hours.\n(2) After reaching the designated time point, the cell culture plate was taken out from the incubator, and placed in a biological safety cabinet. A 4 ml centrifuge tube was taken and marked. The supernatant in the 6-well plate was pipetted out and added to the corresponding 4 ml centrifuge tube. The cells were gently washed with PBS, and the PBS was added to the corresponding centrifuge tube. An appropriate amount of trypsin was added to each well to digest the cells. When the cells were digested to a moderate degree, the liquid in the centrifuge tube was added to the corresponding well. The cells were gently pipetted with a pipette to disperse the cells, and was pipetted back into the original centrifuge tube. The tube was immediately centrifuged at 1500 rpm for 5 minutes. Then, the supernatant was discarded and the precipitate was retained.\n(3) 2 ml of PBS was added to the centrifuge tube, which was centrifuged again at 1000 rpm for 5 minutes. The supernatant was discarded. This step was repeated again.\n(4) The cells were suspended with 1× Binding buffer, and the cell concentration was adjusted to approximately 1×10^6 cells/ml. 100 μl of cell suspension was added to the flow cytometry tube, and 5 μl of PI and 5 μl of Annexin V-FITC were added to each tube. The cells were gently vortexed, and incubated at room temperature in dark for 15 min.\n(5) 400 μl of 1× Binding buffer was further added to each tube, and the detection was performed on the flow cytometer (the detection was in need to be completed within 1 hour).\nWe used AnnexinV-FITC and PI double staining method for apoptosis staining. FL1 channel was selected for FITC, and FL2 channel was selected for PI. Flow cytometry analysis was used to detect cell apoptosis. Q1, Q2, Q3, and Q4 represented dead cells, late apoptotic cells, early apoptotic cells, and normal cells, respectively (FIG. 7). After treating A549 and NCI-H460 cells with the compound of formula (I) at different concentrations (0 μM, 10 μM, 30 μM, and 90 μM) for 72 h, the flow cytometry results are as follows. Table 1 and Table 2 show the proportions of dead cells, late apoptotic cells, early apoptotic cells, and normal cells after treating the A549 and NCI-H460 cells with different concentrations of the compound of formula (I), respectively."}, "[2]": {"system": "NCI-H460 cells", "assay": "Flow cytometry for cell cycle detection, NCI-H460", "assay_type": "cell-based, human", "method": "(1) Cells were inoculated in a 6-well plate. When about 50% of the cells were adherent and fused, the compound of formula (I) at a concentration of 0 μM, 10 μM, 30 μM, and 90 μM were added, respectively. The plate was placed in an incubator at 37° C. with 5% CO2 to continue culturing, and three time points were set, which were 24 h, 48 h and 72 h, respectively.\n(2) After reaching the designated time point, the cell culture plate was taken out from the incubator, and placed in a biological safety cabinet. A 4 ml centrifuge tube was taken and marked. The supernatant in each well was pipetted out and added to the corresponding 4 ml centrifuge tube. The cells were gently washed with PBS, and the PBS was added to the corresponding centrifuge tube. An appropriate amount of trypsin was added to each well to digest the cells. When the cells were digested to a moderate degree, the old culture medium from the centrifuge tube was added to the corresponding well. The cells were gently pipetted with apipette to form a single-cell suspension, which was pipetted back into the original centrifuge tube. The tube was immediately centrifuged at 1500 rpm for 5 minutes. Then, the supernatant was discarded and the precipitate was retained.\n(3) 2 ml of pre-chilled PBS was added to the centrifuge tube, and centrifuged again at 1500 rpm for 5 minutes. The supernatant was discarded, and the cell debris was removed.\n(4) 1 ml of 75% ethanol was added while pipetting the cells, to make the cells appear as single as possible. Then, the cells were fixed at 4° C. overnight or stored at −20° C. for long-term storage (can be stored for 1 week).\n(5) The fixed cells were taken out, and centrifuged at 1000 rpm for 5 minutes. The ethanol was discarded, and pre-chilled PBS was added to wash the cells. Then, the cells were centrifuged at 1000 rpm for 5 min to remove the residual ethanol on the cells.\n(6) A cell cycle detection kit from Wuhan Promoter Biology Co., Ltd. was used. 100 μl of RNaseA was added, and incubated in a 37° C. water bath for 30 minutes.\n(7) 400 μl of PI was added and mixed well, and incubated at 4° C. in dark for 30 minutes.\n(8) The cell cycle was detected by upflow cytometry."}}, "data": [{"compound": "COC1=C(OC)C(=O)C(CCCCCCCCCCOC(=O)Cc2c(C)n(C(=O)c3ccc(Cl)cc3)c3ccc(OC)cc23)=C(C)C1=O", "note": "[compound of formula (I)]", "values": [{"measurement": "Q1 Gated % (dead cells)", "setting": "[1]; 10 μM", "value": "1.07 ± 0.51", "unit": "%"}, {"measurement": "Q2 Gated % (late apoptotic cells)", "setting": "[1]; 10 μM", "value": "2.57 ± 0.48", "unit": "%"}, {"measurement": "Q3 Gated % (early apoptotic cells)", "setting": "[1]; 10 μM", "value": "1.86 ± 0.37", "unit": "%"}, {"measurement": "Q4 Gated % (normal cells)", "setting": "[1]; 10 μM", "value": "94.5 ± 0.57", "unit": "%"}, {"measurement": "percentage of apoptosis (total apoptosis)", "setting": "[1]; 10 μM", "value": "4.43 ± 0.11"}, {"measurement": "Q1 Gated % (dead cells)", "setting": "[1]; 30 μM", "value": "1.34 ± 0.19", "unit": "%"}, {"measurement": "Q2 Gated % (late apoptotic cells)", "setting": "[1]; 30 μM", "value": "3.08 ± 0.16", "unit": "%"}, {"measurement": "Q3 Gated % (early apoptotic cells)", "setting": "[1]; 30 μM", "value": "2.58 ± 1.38", "unit": "%"}, {"measurement": "Q4 Gated % (normal cells)", "setting": "[1]; 30 μM", "value": "93.05 ± 1.34", "unit": "%"}, {"measurement": "percentage of apoptosis (total apoptosis)", "setting": "[1]; 30 μM", "value": "5.65 ± 1.54"}, {"measurement": "Q1 Gated % (dead cells)", "setting": "[1]; 90 μM", "value": "0.31 ± 0.14", "unit": "%"}, {"measurement": "Q2 Gated % (late apoptotic cells)", "setting": "[1]; 90 μM", "value": "20.9 ± 3.39", "unit": "%"}, {"measurement": "Q3 Gated % (early apoptotic cells)", "setting": "[1]; 90 μM", "value": "50.4 ± 1.41", "unit": "%"}, {"measurement": "Q4 Gated % (normal cells)", "setting": "[1]; 90 μM", "value": "28.4 ± 4.67", "unit": "%"}, {"measurement": "percentage of apoptosis (total apoptosis)", "setting": "[1]; 90 μM", "value": "71.3 ± 4.81"}, {"measurement": "proportion of S phase cells", "setting": "[2]; 10 μM, 24 h", "value": 26.03, "unit": "%"}, {"measurement": "proportion of S phase cells", "setting": "[2]; 10 μM, 48 h", "value": 29.62, "unit": "%"}, {"measurement": "proportion of S phase cells", "setting": "[2]; 10 μM, 72 h", "value": 21.61, "unit": "%"}, {"measurement": "proportion of S phase cells", "setting": "[2]; 30 μM, 24 h", "value": 13.15, "unit": "%"}, {"measurement": "proportion of S phase cells", "setting": "[2]; 30 μM, 48 h", "value": 16.02, "unit": "%"}, {"measurement": "proportion of S phase cells", "setting": "[2]; 30 μM, 72 h", "value": 20.98, "unit": "%"}, {"measurement": "proportion of S phase cells", "setting": "[2]; 90 μM, 24 h", "value": 9.76, "unit": "%"}, {"measurement": "proportion of S phase cells", "setting": "[2]; 90 μM, 48 h", "value": 0.97, "unit": "%"}, {"measurement": "proportion of S phase cells", "setting": "[2]; 90 μM, 72 h", "value": 3.36, "unit": "%"}]}]}
